Paper PMC8881063 (Journal of Enzyme Inhibition and Medicinal Chemistry, 2022)
Entries after “also recorded” stand apart in the source; their conditions may differ.

Legend:
[1] = biological target: T1, MAO-B (Homo sapiens, UniProt P27338); experiment: hMAO-B inhibition, spectrophotometric assay; details: for inhibition at 10 µM: read-out: MAO-B % Inhibition, single dose concentration of 10 µM; for Selectivity index for inhibition of MAO-B: IC50 MAO-A divided by IC50 MAO-B
T1 sequence (P27338 1-520): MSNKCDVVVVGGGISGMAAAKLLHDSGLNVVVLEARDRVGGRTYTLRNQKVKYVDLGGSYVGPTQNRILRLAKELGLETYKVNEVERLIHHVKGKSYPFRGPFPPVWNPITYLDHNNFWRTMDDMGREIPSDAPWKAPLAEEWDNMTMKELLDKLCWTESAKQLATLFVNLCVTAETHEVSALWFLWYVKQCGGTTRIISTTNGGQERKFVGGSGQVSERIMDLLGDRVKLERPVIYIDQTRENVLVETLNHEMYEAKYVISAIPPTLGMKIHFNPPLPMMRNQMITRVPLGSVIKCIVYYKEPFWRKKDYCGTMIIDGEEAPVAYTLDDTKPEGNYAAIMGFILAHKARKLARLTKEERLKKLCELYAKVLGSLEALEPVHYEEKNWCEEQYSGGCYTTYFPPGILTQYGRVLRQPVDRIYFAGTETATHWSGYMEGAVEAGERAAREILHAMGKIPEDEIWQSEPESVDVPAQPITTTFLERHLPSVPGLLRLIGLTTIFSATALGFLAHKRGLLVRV
Experimental: The inhibitory activities of the compounds against hMAO-A and hMAO-B enzymes were evaluated referring to a previously described method (Supporting information)[49].

[2] = biological target: T2, recombinant human MAO-A (Homo sapiens, UniProt P21397); experiment: hMAO-A inhibition, spectrophotometric assay; type: biochemical; details: for inhibition at 10 µM: single dose concentration of 10 µM
T2 sequence (P21397 1-527): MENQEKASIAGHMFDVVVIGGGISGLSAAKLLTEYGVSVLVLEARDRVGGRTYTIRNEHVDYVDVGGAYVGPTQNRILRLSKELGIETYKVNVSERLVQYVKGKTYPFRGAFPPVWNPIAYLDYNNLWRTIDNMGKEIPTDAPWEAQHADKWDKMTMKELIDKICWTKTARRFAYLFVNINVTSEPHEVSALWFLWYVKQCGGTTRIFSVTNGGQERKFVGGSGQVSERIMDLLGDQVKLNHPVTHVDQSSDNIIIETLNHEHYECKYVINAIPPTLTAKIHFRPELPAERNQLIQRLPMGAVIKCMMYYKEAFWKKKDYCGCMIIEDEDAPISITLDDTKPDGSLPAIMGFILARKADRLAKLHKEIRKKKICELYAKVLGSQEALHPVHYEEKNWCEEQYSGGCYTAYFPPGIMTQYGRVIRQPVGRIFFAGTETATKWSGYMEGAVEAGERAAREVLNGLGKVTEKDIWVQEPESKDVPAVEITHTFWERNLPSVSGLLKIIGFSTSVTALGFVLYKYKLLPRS
Excerpt: Two different MAO isoforms are known.

[3] = tested on: BV2 cells; experiment: BV2 cell viability, WST-1 assay; type: cell-based; details: doses of 1, 10, 30 and 50 µM
Excerpt: Promising antineurodegenrative candidate molecules should not impair viability of CNS cells. Microglia are critical cells within CNS involved in microglia–neuron communications and are responsible for maintenance of brain integrity and health[61]^,[62]. However, under neuroinflammatory conditions, aberrant activation of microglia contributes to neurodegeneration and disease progression. In this regard, suppression of the abnormal activation while maintenance of viability of microglia is important considerations. […] The viability assay was carried out using the water-soluble tetrazolium reagent WST-1 which eliminates the formazan dissolution step requested in case of MTT[65] employing multiple doses of 1, 10, 30, and 50 µM. […] In lieu of this, it might be inferred that these compounds showing effective inhibition of MAO-B activity and triggering no impairment of microglia viability are good candidates might be advanced for further evaluation towards the development of multifunctional molecules for neurodegenerative diseases such as PD.
The impact of the compounds on the viability of cells was performed by the well-known WST-1 assay method as described in the Supporting information.

[4] = biological target: T1, MAO-B; experiment: MAO-B inhibition reversibility testing (washing); type: biochemical; details: enzymatic activity after washing
Experimental: (§1) To get insights into MAO-B inhibition reaction by compounds 1p and 1y, a kinetic study and reversibility testing were conducted. As illustrated in Figure 4(A,B), Michaelis–Menten graphs were constructed using different concentrations of compounds 1p and 1y employing different concentrations benzylamine as a substrate.
(§2) Kinetics of the inhibition of MAO-B and testing of reversibility were conducted according to literature-reported protocols[59] as indicated in the Supporting information.

[5] = biological target: T1, MAO-B; experiment: MAO-B inhibition kinetic study (Michaelis–Menten, Lineweaver–Burk); type: biochemical
Experimental: as §1, §2

[6] = tested on: LPS-treated BV2 cells (NO production); experiment: LPS-induced production of nitric oxide in BV2 cells; type: cell-based; details: different concentrations, Figure 3(A)
Experimental: (§3) Neuroinflammation is a crucial component in neurodegenerative diseases. Chronic activation of microglia, which are the brain-resident form of macrophages, results in sustained production of several proinflammatory mediators including glial NO, PGE2, and others molecules that are implicated in multiple neurodegenerative diseases. […] In this regard, LPS-treated BV2 cells were incubated with or without different concentrations of each compound. […] Based on collective results of antineuroinflammatory activity evaluation, in conjugation with above-conducted MAO inhibitions’ assays, compound 1p might be claimed as a promising lead compound eliciting polypharmacological effects combining inhibition of neuroinflammation and MAO-B activity; both processes are crucial components of neurodegenerative diseases such as PD.
(§4) The abilities of compounds to inhibit the induced production of NO and PGE2 were assessed by well-known protocol as indicated in the Supporting information.

[7] = tested on: LPS-treated BV2 cells (PGE2 production); experiment: LPS-induced production of PGE2 in BV2 cells; type: cell-based; details: different concentrations, Figure 3(B)
Experimental: as §3, §4

Structure (SMILES) | IC50 [1] | inhibition at 10 µM [1] | IC50 [2] | inhibition at 10 µM [2] | Selectivity index for inhibition of MAO-B [1] | Impact on viability of BV2 cells [3] | Reversibility of MAO-B inhibition [4] | Type of MAO-B inhibition ([5]; Lineweaver–Burk plots) | Ki ([5]; benzylamine as substrate) | Effect on LPS-induced NO production by BV2 cells [6] | Effect on LPS-induced PGE2 production by BV2 cells [7]
O=C1/C(=C/c2ccccc2O)Oc2cc(O)ccc21 [Compound 1a] | > 10 µM | < 50% | > 10 µM | 9.02% | – | – | – | – | – | – | –
O=C1/C(=C/c2cccc(O)c2)Oc2cc(O)ccc21 [Compound 1b] | > 10 µM | 13.6% | > 10 µM | 16.6% | – | – | – | – | – | – | –
O=C1/C(=C/c2cccc(O)c2O)Oc2cc(O)ccc21 [Compound 1c, (Z)-2–(2,3-Dihydroxybenzylidene)-6-hydroxybenzofuran-3(2H)-one] | 3 µM | 58.9% | > 10 µM | 46.2% | >3.34 | – | – | – | – | – | –
O=C1/C(=C/c2ccc(O)cc2O)Oc2cc(O)ccc21 [Compound 1d] | > 10 µM | 48.3% | > 10 µM | 44.1% | – | – | – | – | – | – | –
O=C1/C(=C/c2ccc(O)c(O)c2)Oc2cc(O)ccc21 [Compound 1e] | 2.41 µM | 61.8% | 4.66 µM | 64.9% | 1.93 | – | – | – | – | – | –
O=C1/C(=C/c2cc(O)ccc2O)Oc2cc(O)ccc21 [Compound 1f] | 3.52 µM | 61.4% | 7.77 µM | 53.3% | 2.21 | – | – | – | – | – | –
O=C1/C(=C/c2cc(O)cc(O)c2)Oc2cc(O)ccc21 [Compound 1g, (Z)-2–(3,5-Dihydroxybenzylidene)-6-hydroxybenzofuran-3(2H)-one] | > 10 µM | 12.8% | > 10 µM | 35.7% | – | – | – | – | – | – | –
O=C1/C(=C/c2cc(O)c(O)c(O)c2)Oc2cc(O)ccc21 [Compound 1h] | > 10 µM | 47.5% | > 10 µM | 49.5% | – | – | – | – | – | – | –
COc1ccccc1/C=C1\Oc2cc(O)ccc2C1=O [Compound 1i] | 1.84 µM | 75.5% | > 100 µM | 5.49% | >54 | – | – | – | – | – | –
COc1cccc(/C=C2\Oc3cc(O)ccc3C2=O)c1 [Compound 1j] | 2.41 µM | 73.2% | > 100 µM | 7.43% | >41 | – | – | – | – | – | –
COc1ccc(/C=C2\Oc3cc(O)ccc3C2=O)cc1 [Compound 1k] | 0.365 µM | 94.6% | 6.98 µM | 53% | – | – | – | – | – | – | –
COc1cccc(/C=C2\Oc3cc(O)ccc3C2=O)c1OC [Compound 1l] | 3.52 µM | 70.8% | > 100 µM | -2.21% | >28 | – | – | – | – | – | –
COc1ccc(OC)c(/C=C2\Oc3cc(O)ccc3C2=O)c1 [Compound 1m] | > 10 µM | 46.3% | > 10 µM | -0.29% | – | – | – | – | – | – | –
COc1ccc(/C=C2\Oc3cc(O)ccc3C2=O)cc1OC [Compound 1n] | > 10 µM | 42.6% | > 10 µM | 4.52% | – | – | – | – | – | – | –
COc1cc(/C=C2\Oc3cc(O)ccc3C2=O)cc(OC)c1 [Compound 1o] | > 10 µM | 41.2% | > 10 µM | 0.37% | – | – | – | – | – | – | –
COCOc1ccc(/C=C2\Oc3cc(O)ccc3C2=O)cc1 [Compound 1q] | 0.593 µM | 89% | > 100 µM | 24.5% | >168 | none of the tested concentrations | – | – | – | – | –
COc1ccc2c(c1)O/C(=C\c1ccccc1O)C2=O [Compound 1r] | > 10 µM | 22.5% | > 10 µM | 2.29% | – | – | – | – | – | – | –
COc1ccc2c(c1)O/C(=C\c1cccc(O)c1)C2=O [Compound 1s] | > 10 µM | 48.9% | > 10 µM | 7.73% | – | – | – | – | – | – | –
COc1ccc2c(c1)O/C(=C\c1ccc(O)cc1)C2=O [Compound 1t] | 1.33 µM | 89.6% | > 100 µM | 8.54% | >75 | – | – | – | – | – | –
COc1ccc2c(c1)O/C(=C\c1cccc(O)c1O)C2=O [Compound 1u, (Z)-2–(2,3-Dihydroxybenzylidene)-6-methoxybenzofuran-3(2H)-one] | 2.41 µM | 65% | 7.04 µM | 52.8% | – | – | – | – | – | – | –
COc1ccc2c(c1)O/C(=C\c1ccc(O)cc1O)C2=O [Compound 1v] | 6.04 µM | 66.7% | 8.2 µM | 55.7% | – | – | – | – | – | – | –
COc1ccc2c(c1)O/C(=C\c1ccc(O)c(O)c1)C2=O [Compound 1w] | 2.41 µM | 70.5% | 5.62 µM | 60.8% | – | – | – | – | – | – | –
COc1ccc2c(c1)O/C(=C\c1ccccc1OC)C2=O [Compound 1x] | 0.593 µM | 89.5% | > 100 µM | 21.6% | >168 | none of the tested concentrations | – | – | – | – | –
COc1cccc(/C=C2\Oc3cc(OC)ccc3C2=O)c1 [Compound 1y] | 0.201 µM | 99.2% | > 100 µM | 3.26% | >496 | none of the tested concentrations | washing restored the enzymatic activity | competitive inhibitors; also recorded: Competitive inhibition | 0.0291 µM | – | –
O=C1/C(=C/c2ccc(O)cc2)Oc2cc(O)ccc21 [Hispidol, hispidol, reference compound] | – | – | 5.28 µM | 69.3% | – | cytotoxic effects | – | – | – | significant inhibition of NO production | effectively suppressed the induced-PGE2 production
C[C@H](NCc1ccc(OCc2cccc(F)c2)cc1)C(N)=O [Safinamide, safinamide, reference compound] | – | – | – | – | – | cytotoxic effects | – | – | – | significant inhibition of NO production | undesirable dose-dependent increase in PGE2 production
